These results are taken from patent US12461089B2, “Olfactory receptor involved in the perception of musk fragrance and the use thereof” (ChemoSensoryX Biosciences SA, priority 2017, dated 2025).

Where two headings read alike, the source gives them in different places.

Holding throughout (type): cell-based
For one assay, the target named is T1, OR5A2_variant 1 (Homo sapiens, UniProt Q8NGI9).
T1 construct: expressed in transfected cells; host or cells: HEK293T-RTP1A1/RTP2
T1 sequence (Q8NGI9 1-324): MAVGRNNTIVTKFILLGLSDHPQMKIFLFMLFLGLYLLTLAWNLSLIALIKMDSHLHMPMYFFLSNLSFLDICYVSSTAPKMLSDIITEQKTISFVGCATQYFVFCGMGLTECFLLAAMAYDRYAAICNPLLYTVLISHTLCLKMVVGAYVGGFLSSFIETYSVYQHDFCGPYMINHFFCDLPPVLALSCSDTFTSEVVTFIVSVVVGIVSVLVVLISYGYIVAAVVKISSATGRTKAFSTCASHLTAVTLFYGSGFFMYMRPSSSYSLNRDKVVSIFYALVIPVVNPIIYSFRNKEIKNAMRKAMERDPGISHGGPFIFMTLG
Description: Luciferase reporter concentration-response analysis on OR5A2_variant 1. The method, then:
(§1) HEK293T-RTP1A1/RTP2 cells were maintained in minimal essential medium (EMEM, Lonza) containing 10% fetal bovine serum (M10). These cells were generated by transfecting HEK293T with an expression vector containing the sequences of the chaperone proteins RTP1A1 and RTP2 and a resistance gene to puromycin, using Lipofectamine 2000.
(§2) Odorant molecules were diluted at a concentration of 1 mole/liter (M) into dimethyl sulfoxide (DMSO) to generate stock solutions.
(§3) For concentration-response analysis, serial dilutions of the tested molecules were prepared from stock solutions in EMEM plated into 96-well plates.
(§4) For the initial deorphanisation screening and dose-response analysis, a Luciferase-based gene reporter assay (Promega, Leiden, The Nederlands) was used. Briefly, cells were platted on Poly-D-lysine-coated 96-well and transfected with a plasmid containing the CRE-luciferase and a plasmid containing the olfactory receptor. Sixteen hours after transfection, the culture medium was replaced by serum-free EMEM containing the tested compounds at a determined concentration. After four hours of incubation at 37° C. degree, cells were lysed and processed for luminescence measurement. Luminescene emission was recorded. Results were expressed as luciferase activity (Relative […] Unit (RLU)) or as percentage of the response induced by 10 μM of the adenylate cyclase activator Forskolin. An empty plasmid is used as negative control.
(§5) 35 musk compounds from the four structurally different chemical groups previously described were tested in concentration-response analyses (Table 2). In each experiment, an empty vector was used as negative control (pEFIBRHO). […] Full results including the calculated EC50 are given in Table 2; “non active” represent negative experiments, no activation after testing.
For orientation: A reporter such as luciferase makes a cellular process visible.

The next assay addresses T2, OR11A1 (Homo sapiens, UniProt Q9GZK7).
T2 construct: expressed in transfected cells; host or cells: HEK293T-RTP1A1/RTP2
T2 sequence (Q9GZK7 1-315): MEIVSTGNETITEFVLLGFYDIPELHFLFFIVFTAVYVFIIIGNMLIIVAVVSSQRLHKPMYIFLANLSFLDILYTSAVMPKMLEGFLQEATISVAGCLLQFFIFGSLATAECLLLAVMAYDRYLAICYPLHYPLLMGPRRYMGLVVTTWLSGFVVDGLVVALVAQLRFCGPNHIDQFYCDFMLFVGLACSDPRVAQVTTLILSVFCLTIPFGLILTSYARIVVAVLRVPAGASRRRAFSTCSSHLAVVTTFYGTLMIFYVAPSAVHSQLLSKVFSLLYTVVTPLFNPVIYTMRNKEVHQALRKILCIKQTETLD
Description: Luciferase reporter concentration-response analysis on OR11A1. How it is done: as §1, §2, §3, §4, §5
These compounds were tested in concentration-response analysis in luciferase assays, as described previously. In each experiment, an empty vector was used as negative control (pEFIBRHO).

The target in the next assay is T3, OR5AN1 (Homo sapiens, UniProt Q8NGI8, E89G).
T3 construct: expressed in transfected cells; host or cells: HEK293T-RTP1A1/RTP2
T3 sequence (Q8NGI8 1-311 E89G): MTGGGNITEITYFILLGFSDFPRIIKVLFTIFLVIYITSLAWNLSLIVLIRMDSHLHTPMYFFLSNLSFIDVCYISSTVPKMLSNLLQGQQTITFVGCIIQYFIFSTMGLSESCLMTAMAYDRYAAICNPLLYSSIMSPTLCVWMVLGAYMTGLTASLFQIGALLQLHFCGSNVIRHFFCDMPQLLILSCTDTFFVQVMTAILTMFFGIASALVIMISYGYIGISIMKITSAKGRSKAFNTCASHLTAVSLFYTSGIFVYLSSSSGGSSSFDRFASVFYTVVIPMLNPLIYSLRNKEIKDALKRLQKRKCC
Description: Luciferase reporter concentration-response analysis on OR5AN1. Particulars: concentration-response analysis, luciferase reporter, values given as negative (log) numbers, Non Active = no activation after testing; for EC50: read-out: calculated EC50, OR5AN1 (converted). The method, then: HEK293T-RTP1A1/RTP2 cells were maintained in minimal essential medium (EMEM, Lonza) containing 10% fetal bovine serum (M10). These cells were generated by transfecting HEK293T with an expression vector containing the sequences of the chaperone proteins RTP1A1 and RTP2 and a resistance gene to puromycin, using Lipofectamine 2000. The recombinant cell population, used in these experiments, was selected by adding 10 μg/ml of puromycin into the culture medium and subsequently subcloned (WO 2014/191047 A1).
as §2, §3, §4
In these analyses we also included ORs previously described as musk-specific receptors OR5AN1 (SEQ ID n° 7) (WO 2015/020158 A1, Shirasu et al. 2014 Neuron 81, 165-78, Sato-Akuhara N et al. 2016 J Neurosci. 36(16), 4482-91) and OR11A1 (SEQ ID n° 8) (WO 2016/201152 A1). […] Therefore, OR5A1 was included in the analyses. 35 musk compounds from the four structurally different chemical groups previously described were tested in concentration-response analyses (Table 2). In each experiment, an empty vector was used as negative control (pEFIBRHO). […] Full results including the calculated EC50 are given in Table 2; “non active” represent negative experiments, no activation after testing. […]

[1] abbreviates: concentration-response analysis, luciferase reporter, values given as negative (log) numbers, read-out: calculated EC50, OR5A2 (converted).
[2] abbreviates: concentration-response analysis, luciferase reporter, values given as negative (log) numbers.
[3] abbreviates: concentration-response analysis, luciferase reporter, values given as negative (log) numbers, Non Active = no activation after testing, read-out: calculated EC50, OR11A1 (converted).

For `Cc1c([N+](=O)[O-])cc2c(c1[N+](=O)[O-])C(C)(C)CC2(C)C` [Moskene, 1,1,3,3,5-pentamethyl-4,6-dinitro-2H-indene], the EC50 (commonly the concentration giving half of the maximal effect) at OR5A2_variant 1 (setting [1]) was 1.86 µM.
Consider `CC1CC(C)(C)c2ccc(C=O)cc2C1(C)C` (stereo not drawn) [Fixal], for which the EC50 on OR5A2_variant 1 was 10.2 µM; at OR11A1 it was 8.91 µM.
Turning to `O=C1CCCCCCCCC/C=C/CCCO1` [Habanolide], the half-maximal effective concentration (EC50) on OR5A2_variant 1 is 16.2 µM; at OR5AN1 it was 66.1 µM.
For the compound muscone, the “calculated EC50, OR5A2” value at OR5A2_variant 1 (setting [2]) is on record as −5.25. In addition, the “calculated EC50, OR5AN1” value at OR5AN1 is listed as −5.37.
On to Isoambrettolide, for which, on OR5A2_variant 1 (setting [2]), the “calculated EC50, OR5A2” value is recorded as −4.72.
With `O=C1CCCCCCCCCCCCCCO1` [Thibetolide = Exaltolide], the EC50 on OR5A2_variant 1 (setting [1]) is 43.7 µM; on OR5AN1 it was 87.1 µM.
For `O=C1CCCCCCCCCCC(=O)OCCO1` [Musk MC4], in that order: 38 µM and 75.9 µM.
On to `CC(=O)c1cc2c(cc1C)C(C)(C)C(C)C2C(C)C` (stereo not drawn) [traseolide], for which the EC50 on OR5A2_variant 1 (setting [1]) was 1.95 µM; on OR11A1 (setting [3]), 7.08 µM.
In the case of `CC1COCc2cc3c(cc21)C(C)(C)C(C)C3(C)C` (stereo not drawn) [Galaxolide ®], the EC50 on OR5A2_variant 1 (setting [1]) is 1.05 µM.
For Helvetolide, the “calculated EC50, OR5A2” value on OR5A2_variant 1 (setting [2]) is reported as −3.86.
In the case of `c1ncc2c(n1)CCCCCCCCCC2` [Musk 77], the EC50 at OR5A2_variant 1 (setting [1]) was 5.13 µM; at OR11A1 (setting [3]) it was 9.12 µM.
For `C=C(C)C1CCC(C)=C1CC(C)(C)COC(=O)CC` (stereo not drawn) [cyclopentenyl propionate musk], the EC50 on OR5A2_variant 1 is 28.2 µM.
As for `CC(=O)c1cc(C(C)(C)C)cc2c1CCC2(C)C` [crysolide], the values for the EC50 on OR5A2_variant 1 (setting [1]) and at OR5AN1 were 22.4 µM and 120 µM, respectively.
As to `C/C(=C\C(C)C)C(C)OC(C)(C)COC(=O)C1CC1` (stereo not drawn) [Sylkolide], on OR5A2_variant 1, the EC50 is 17.8 µM.
Regarding `CC(=O)c1cc2c(cc1C)C(C)(C)C(C)CC2(C)C` (stereo not drawn) [Tonalide ®], the EC50 at OR5A2_variant 1 (setting [1]) was 0.759 µM; on OR11A1 (setting [3]) it was 18.2 µM.
For `CC(=O)c1cc2c(cc1C)C(C)(C)C(C)C2(C)C` (stereo not drawn) [Phantolide], in that order: 4.57 µM and 7.59 µM.
`O=C1CCCCCCCCOCCCCCCO1` [Oxalide T]: the EC50 was 8.32 µM on OR5A2_variant 1 (setting [1]) and 32.4 µM on OR5AN1.
In the case of `O=C1CCCCCC/C=C\CCCCCCC1` [Globanone (Animusk)], the EC50 on OR5A2_variant 1 (setting [1]) was 3.98 µM; at OR5AN1 it was 2.24 µM.
As for `CC1C/C=C\CCCCCCCCC(=O)OCC1` (stereo not drawn) [nirvanolide], the figures for the EC50 on OR5A2_variant 1 and on OR5AN1 were 19.5 µM and 417 µM, respectively.
For Cyclopenta- decanone, the “calculated EC50, OR5AN1” value on OR5AN1 is listed as −4.95.
Regarding `COc1c(C(C)(C)C)cc([N+](=O)[O-])c(C)c1[N+](=O)[O-]` [Musk Ambrette, 2,6-dinitro-3-methoxy-4-tert-butyltoluene], the EC50 at OR5A2_variant 1 (setting [1]) was 8.71 µM; on OR5AN1, 692 µM.
Turning to `CC1CC(C)(C)C2=C(CC3(C)OC3C2)C1(C)C` (stereo not drawn) [malaxone], the EC50 on OR5A2_variant 1 is 29.5 µM; on OR5AN1 it was 309 µM.
Consider ω-6-Hexadecen- lactone, for which the “calculated EC50, OR5A2” value at OR5A2_variant 1 (setting [2]) is reported as −5.17. Moreover, the “calculated EC50, OR5AN1” value at OR5AN1 is −4.68.
